{"source": "paper PMC4354947", "about": "(Journal of medicinal chemistry, 2012)", "key": {"turkey P2Y1 receptor [1]": {"biological_target": "T1, turkey P2Y1 receptor (Meleagris gallopavo, UniProt P49652)", "T1 sequence (P49652 whole entry)": "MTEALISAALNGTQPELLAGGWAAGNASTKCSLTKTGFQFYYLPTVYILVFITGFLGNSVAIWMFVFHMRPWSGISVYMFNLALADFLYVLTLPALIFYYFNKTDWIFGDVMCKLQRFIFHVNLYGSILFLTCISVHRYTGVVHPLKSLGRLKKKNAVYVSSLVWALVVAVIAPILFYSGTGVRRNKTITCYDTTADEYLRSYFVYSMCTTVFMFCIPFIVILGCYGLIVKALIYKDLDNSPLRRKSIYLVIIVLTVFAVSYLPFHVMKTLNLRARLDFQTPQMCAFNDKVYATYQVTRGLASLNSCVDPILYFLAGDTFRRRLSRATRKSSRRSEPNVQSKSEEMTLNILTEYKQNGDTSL", "assay": "Increase in [Ca2+]i in 1321N1 astrocytoma cells expressing turkey P2Y1 receptor", "format": "cell-based"}, "P2Y2 receptor": {"test_system": "P2Y2 receptor", "assay": "Agonist activity at P2Y2 receptor", "format": "cell-based", "conditions": "data not shown"}, "P2Y4 receptor": {"test_system": "P2Y4 receptor", "assay": "Agonist activity at P2Y4 receptor", "format": "cell-based", "conditions": "data not shown"}, "P2Y6 receptor": {"test_system": "P2Y6 receptor", "assay": "Agonist activity at P2Y6 receptor", "format": "cell-based", "conditions": "data not shown"}, "human eNPP1": {"test_system": "human eNPP1", "assay": "Resistance to degradation by human eNPP1", "format": "in vitro ADME", "conditions": "after 20 min, 37 °C, pH 8.5"}, "blood glucose levels [2]": {"test_system": "blood glucose levels", "assay": "Oral glucose tolerance test in naive rats", "format": "in vivo, rat", "conditions": "OGTT, 30 mg/kg iv, within 45 min, saline 155 mg/dL"}, "blood glucose levels [3]": {"test_system": "blood glucose levels", "assay": "Oral glucose tolerance test in naive mice", "format": "in vivo, mouse", "conditions": "OGTT; for effect on blood glucose levels: 30 mg/kg iv"}, "blood glucose levels [4]": {"test_system": "blood glucose levels", "assay": "Glucose tolerance test in STZ diabetic mouse model", "format": "in vivo", "conditions": "STZ diabetic mice, 30 mg/kg iv"}, "blood glucose levels [5]": {"test_system": "blood glucose levels", "assay": "Glucose tolerance test in db+/db- diabetic mouse model", "format": "in vivo", "conditions": "db+/db− mice, 30 mg/kg iv"}, "tail bleeding": {"test_system": "tail bleeding", "assay": "Tail-bleed assay in rats, oral administration", "format": "in vivo, rat", "conditions": "oral 30 mg/kg, 30 min before tail-cut"}, "[6]": {"assay": "Solubility in aqueous media", "format": "physicochemical"}, "turkey P2Y1 receptor [7]": {"biological_target": "T1, turkey P2Y1 receptor", "conditions": "read-out: EC50 at P2Y1R, cited from earlier work"}, "isolated rat pancreas": {"test_system": "isolated rat pancreas", "conditions": "listed as IA; cited from earlier work"}, "insulin secretion": {"test_system": "insulin secretion", "conditions": "cited from earlier work"}, "[8]": {"assay": "Chemical stability at acidic pH 1.4", "format": "physicochemical", "conditions": "pH 1.4, 37 °C, pseudo-first-order model"}, "[9]": {"conditions": "read-out: EC50 at P2Y1R, increase in [Ca2+]i, human 1321N1 astrocytoma cells, turkey P2Y1R"}}, "note": "Like-named read-outs stand apart in the source and are kept apart here.", "data": [{"compound": "[BH3-][P@@](=O)(OC[C@H]1O[C@@H](n2cnc3c(N)nc(SC)nc32)[C@H](O)[C@@H]1O)OP(=O)([O-])[O-].[Na+].[Na+].[Na+]", "note": "[analogue 3A, 2-Methylthioadenosine 5′-O-(′-Borano)diphosphate, A Isomer]", "values": [{"measurement": "EC50", "setting": "turkey P2Y1 receptor [1]", "result": 38, "unit": "nM"}, {"measurement": "agonist activity at P2Y2 receptor", "setting": "P2Y2 receptor", "result": "no activity"}, {"measurement": "agonist activity at P2Y4 receptor", "setting": "P2Y4 receptor", "result": "no activity"}, {"measurement": "agonist activity at P2Y6 receptor", "setting": "P2Y6 receptor", "result": "no activity"}, {"measurement": "% hydrolysis of human eNPP1", "setting": "human eNPP1", "result": 4, "unit": "%"}, {"measurement": "blood glucose level after glucose load", "setting": "blood glucose levels [2]", "result": "ca. 87 mg/dL"}, {"measurement": "effect on blood glucose levels, dose comparison", "setting": "blood glucose levels [3]; 10 and 30 mg/kg iv", "result": "higher dose being more effective at reducing the glucose load"}, {"measurement": "effect on blood glucose levels", "setting": "blood glucose levels [4]", "result": "lower blood glucose levels to normal values"}, {"measurement": "effect on blood glucose levels", "setting": "blood glucose levels [5]", "result": "lower blood glucose levels to normal values"}, {"measurement": "bleeding time", "setting": "tail bleeding", "result": "increased"}, {"measurement": "tail bleeding blood volume", "setting": "tail bleeding", "result": "increased"}, {"measurement": "solubility in aqueous media", "setting": "[6]", "result": "highly soluble"}]}, {"compound": "P1-Borano P1,P3-5′-Di-2-methylthioadenosine 5′-Triphosphate [analogue 4]", "values": [{"measurement": "fold increase in potency at P2Y1R by MeS substitution at C2", "setting": "turkey P2Y1 receptor [1]; analogue 4 isomers vs Ap3(α-B)A isomers", "result": 4.6, "unit": "fold"}]}, {"compound": "P^1-Borano P^1,P^3-5′-Di-2-methylthioadenosine 5′-Triphosphate, A Isomer [analogue 4A]", "values": [{"measurement": "EC50", "setting": "turkey P2Y1 receptor [1]; [9]", "result": 140, "unit": "nM"}]}, {"compound": "BP(=O)(OCC1OC(n2cnc3c(N)ncnc32)C(O)C1O)OP(=O)(O)OP(=O)(O)OCC1OC(n2cnc3c(N)ncnc32)C(O)C1O", "note": "(stereo not drawn) [Ap3(α-B)A]", "values": [{"measurement": "EC50", "setting": "turkey P2Y1 receptor [7]; first-named (A) isomer", "result": 760, "unit": "nM"}, {"measurement": "EC50", "setting": "turkey P2Y1 receptor [7]; second-named (B) isomer", "result": 800, "unit": "nM"}]}, {"compound": "Nc1ncnc2c1ncn2[C@@H]1O[C@H](COP(=O)(O)OP(=O)(O)O)[C@@H](O)[C@H]1O", "note": "[ADP, adenosine 5′ diphosphate, reference compound]", "values": [{"measurement": "% hydrolysis of human eNPP1", "setting": "human eNPP1", "result": 25, "unit": "%"}]}, {"compound": "P^1-Borano P^1,P^3-5′-Di-2-methylthioadenosine 5′-Triphosphate, B Isomer [analogue 4B]", "values": [{"measurement": "EC50", "setting": "turkey P2Y1 receptor [1]; [9]", "result": 190, "unit": "nM"}]}, {"compound": "CSc1nc(N)c2ncn([C@@H]3O[C@H](COP(=O)(O)OP(=O)(O)O)[C@@H](O)[C@H]3O)c2n1", "note": "[2-MeS-ADP, reference compound]", "values": [{"measurement": "% hydrolysis of human eNPP1", "setting": "human eNPP1", "result": 16, "unit": "%"}]}, {"compound": "[BH3-][P@@](=O)(OC[C@H]1O[C@@H](n2cnc3c(N)nc(SC)nc32)[C@H](O)[C@@H]1O)OP(=O)([O-])OP(=O)([O-])[O-].[Na+].[Na+].[Na+].[Na+]", "note": "[analogue 1A, 2-methylthio-ATP(α-B)]", "values": [{"measurement": "increase of insulin secretion over basal secretion", "setting": "isolated rat pancreas", "result": "up to 9 fold"}, {"measurement": "insulin secretion in vivo", "setting": "insulin secretion", "result": "failed to induce insulin secretion in vivo"}]}, {"compound": "[BH3-][P@@](=O)(OC[C@H]1O[C@@H](n2cnc3c(N)ncnc32)[C@H](O)[C@@H]1O)OP(=O)([O-])[O-].[Na+].[Na+].[Na+]", "note": "[analogue 2A, ADP(α-B)]", "values": [{"measurement": "% hydrolysis of human eNPP1", "setting": "human eNPP1", "result": 5, "unit": "%"}]}, {"compound": "[BH3-]P(=O)(OC[C@H]1O[C@@H](n2cnc3c(N)nc(SC)nc32)[C@H](O)[C@@H]1O)OP(=O)([O-])[O-].[Na+].[Na+].[Na+]", "note": "(stereo partly shown) [analogue 3, 2-Methylthioadenosine 5′-O-(′-Borano)diphosphate]", "values": [{"measurement": "hydrolysis rate constant at pH 1.4", "setting": "[8]", "result": "2 × 10^−5 s^−1"}, {"measurement": "effect on blood glucose levels", "setting": "blood glucose levels [3]", "result": "less effective than analogue 3A alone"}]}, {"compound": "[BH3-][P@](=O)(OC[C@H]1O[C@@H](n2cnc3c(N)nc(SC)nc32)[C@H](O)[C@@H]1O)OP(=O)([O-])[O-].[Na+].[Na+].[Na+]", "note": "[analogue 3B, 2-Methylthioadenosine 5′-O-(′-Borano)diphosphate, B Isomer]", "values": [{"measurement": "effect on blood glucose levels", "setting": "blood glucose levels [3]", "result": "ineffective"}]}]}
